Measurements reported in the supplement of paper PMC10307832.

What was measured:
Experiment in all cases: relative viability (nuclei count vs DMSO), 5 days (fraction); higher = more cells survive
CAP-232 + Luminespib = compound: C[C@H]([C@@H](C(=O)N)NC(=O)[C@@H]1CSSC[C@@H](C(=O)N[C@H](C(=O)N[C@@H](C(=O)N[C@H](C(=O)N1)CCCCN)CC2=CNC3=CC=CC=C32)CC4=CC=C(C=C4)O)NC(=O)[C@@H](CC5=CC=CC=C5)N)O [CAP-232] + CCNC(=O)c1noc(-c2cc(C(C)C)c(O)cc2O)c1-c1ccc(CN2CCOCC2)cc1 [Luminespib] (partner 0.01 µM)
Method in brief: (§1)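 The day after seeding in 1536-well plates, lung cancer cell lines were treated by pin tool with a single drug, or with a fixed anchor-drug dose together with five library-drug doses (not always all listed) in √10 steps. After 5 days, a combined fix-and-stain solution (final 0.05% Triton X-100, 1% formaldehyde, 1 ug/ml Hoechst) was added. Nuclei counted on 4× images gave relative viability as treated counts over vehicle counts, reported as the median of duplicate plates.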

CAP-232 + Foretinib = compound: C[C@H]([C@@H](C(=O)N)NC(=O)[C@@H]1CSSC[C@@H](C(=O)N[C@H](C(=O)N[C@@H](C(=O)N[C@H](C(=O)N1)CCCCN)CC2=CNC3=CC=CC=C32)CC4=CC=C(C=C4)O)NC(=O)[C@@H](CC5=CC=CC=C5)N)O [CAP-232] + COc1cc2c(Oc3ccc(NC(=O)C4(C(=O)Nc5ccc(F)cc5)CC4)cc3F)ccnc2cc1OCCCN1CCOCC1 [Foretinib] (partner 0.25 µM)
Method in brief: as §1

CAP-232 + OSI-027 = compound: C[C@H]([C@@H](C(=O)N)NC(=O)[C@@H]1CSSC[C@@H](C(=O)N[C@H](C(=O)N[C@@H](C(=O)N[C@H](C(=O)N1)CCCCN)CC2=CNC3=CC=CC=C32)CC4=CC=C(C=C4)O)NC(=O)[C@@H](CC5=CC=CC=C5)N)O [CAP-232] + COc1cccc2cc(-c3nc([C@H]4CC[C@H](C(=O)O)CC4)n4ncnc(N)c34)[nH]c12 [OSI-027] (partner 0.5 µM)
Method in brief: as §1

CAP-232 + Alpelisib = compound: C[C@H]([C@@H](C(=O)N)NC(=O)[C@@H]1CSSC[C@@H](C(=O)N[C@H](C(=O)N[C@@H](C(=O)N[C@H](C(=O)N1)CCCCN)CC2=CNC3=CC=CC=C32)CC4=CC=C(C=C4)O)NC(=O)[C@@H](CC5=CC=CC=C5)N)O [CAP-232] + Cc1nc(NC(=O)N2CCC[C@H]2C(N)=O)sc1-c1ccnc(C(C)(C)C(F)(F)F)c1 [Alpelisib] (partner 2 µM)
Method in brief: as §1

CAP-232 + Decitabine = compound: C[C@H]([C@@H](C(=O)N)NC(=O)[C@@H]1CSSC[C@@H](C(=O)N[C@H](C(=O)N[C@@H](C(=O)N[C@H](C(=O)N1)CCCCN)CC2=CNC3=CC=CC=C32)CC4=CC=C(C=C4)O)NC(=O)[C@@H](CC5=CC=CC=C5)N)O [CAP-232] + Nc1ncn([C@H]2C[C@H](O)[C@@H](CO)O2)c(=O)n1 [Decitabine] (partner 2 µM)
Method in brief: as §1

Cell Line | relative viability (CAP-232 + Luminespib; first compound 0.4 µM) | relative viability (CAP-232 + Luminespib; first compound 1.265 µM) | relative viability (CAP-232 + Luminespib; first compound 4 µM) | relative viability (CAP-232 + Luminespib; first compound 12.65 µM) | relative viability (CAP-232 + Foretinib; first compound 0.4 µM) | relative viability (CAP-232 + Foretinib; first compound 1.265 µM) | relative viability (CAP-232 + Foretinib; first compound 4 µM) | relative viability (CAP-232 + Foretinib; first compound 12.65 µM) | relative viability (CAP-232 + OSI-027; first compound 0.4 µM) | relative viability (CAP-232 + OSI-027; first compound 1.265 µM) | relative viability (CAP-232 + OSI-027; first compound 4 µM) | relative viability (CAP-232 + OSI-027; first compound 12.65 µM) | relative viability (CAP-232 + Alpelisib; first compound 0.4 µM) | relative viability (CAP-232 + Alpelisib; first compound 1.265 µM) | relative viability (CAP-232 + Alpelisib; first compound 4 µM) | relative viability (CAP-232 + Alpelisib; first compound 12.65 µM) | relative viability (CAP-232 + Decitabine; first compound 0.4 µM) | relative viability (CAP-232 + Decitabine; first compound 1.265 µM) | relative viability (CAP-232 + Decitabine; first compound 4 µM) | relative viability (CAP-232 + Decitabine; first compound 12.65 µM)
NCI-H2023 | 0.917 | 0.725 | 0.69 | 0.232 | 0.899 | 0.946 | 0.766 | 0.294 | 0.429 | 0.359 | 0.447 | 0.124 | 0.711 | 0.592 | 0.637 | 0.237 | 0.242 | 0.2 | 0.239 | 0.153
NCI-H1395 | 0.661 | 0.638 | 0.665 | 0.614 | 0.971 | 0.997 | 0.854 | 1.11 | 0.647 | 0.532 | 0.67 | 0.707 | 0.888 | 1.08 | 0.912 | 0.848 | 0.777 | – | 0.745 | 0.537
NCI-H2087 | 0.187 | 0.157 | 0.146 | 0.143 | 1.17 | 1.2 | 1.1 | 0.665 | 0.444 | 0.489 | 0.596 | 0.41 | 0.983 | 1.17 | 0.929 | 0.841 | 0.265 | 0.261 | 0.276 | 0.238
PC-14 | 0.26 | 0.178 | 0.183 | 0.125 | 1.06 | 0.939 | 1.06 | 0.86 | 0.8 | 0.848 | 1.08 | 0.397 | 1.06 | 0.911 | 1.14 | 0.926 | 0.215 | 0.191 | 0.205 | 0.151
NCI-H1793 | 0.199 | 0.195 | 0.451 | 0.165 | 0.678 | 0.761 | 0.639 | 0.725 | 0.282 | 0.253 | 0.196 | 0.25 | 0.829 | 0.669 | 0.573 | 0.627 | 0.473 | 0.406 | 0.389 | 0.494
LC-2-ad | 1.03 | 1.07 | 0.965 | 0.561 | 0.875 | 0.878 | 0.894 | 0.524 | 0.954 | 0.852 | 0.756 | 0.559 | 0.931 | 0.823 | 0.804 | 0.824 | 0.866 | 0.705 | 0.76 | 0.771
LOU-NH91 | 0.335 | 0.271 | 0.341 | 0.326 | 0.994 | 0.903 | 0.86 | 0.919 | 0.756 | 0.775 | 0.72 | 0.675 | 0.738 | 0.771 | 0.699 | 0.58 | 0.787 | 0.787 | 0.8 | 0.594
